Source: PubChem BioAssay AID1963841 (Molecular Pharmacology Branch, DTP, NCI, 2024)

System: 439559-082-T-J2-PDC spheroid viability
Experiment: Anticancer human tumor 439559-082-T-J2-PDC patient-derived colon adenocarcinoma cell line growth inhibition [POLQ]
Details: spheroids with HUVEC and MSC; for IC50: curve of first compound; for viability, T/C: stronger effect = lower value
In short: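 PDC + HUVEC + MSC complex spheroids; POLQ inhibitors ± partner drugs; top conc. at/near clinical Cmax, else 10 microM (SN-38 1 microM), half-log dilutions; 37 degrees C, 5% CO2.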

[1] = second compound 0.0316 µM, first compound 0.0316 µM
[2] = second compound 0.0316 µM, first compound 0.1 µM
[3] = second compound 0.0316 µM, first compound 0.316 µM
[4] = second compound 0.0316 µM, first compound 1 µM
[5] = second compound 0.0316 µM, first compound 3.16 µM
[6] = second compound 0.0316 µM, first compound 10 µM
[7] = second compound 0.1 µM, first compound 0.0316 µM
[8] = second compound 0.1 µM, first compound 0.1 µM
[9] = second compound 0.1 µM, first compound 0.316 µM
[10] = second compound 0.1 µM, first compound 1 µM
[11] = second compound 0.1 µM, first compound 3.16 µM
[12] = second compound 0.1 µM, first compound 10 µM
[13] = second compound 0.316 µM, first compound 0.0316 µM
[14] = second compound 0.316 µM, first compound 0.1 µM
[15] = second compound 0.316 µM, first compound 0.316 µM
[16] = second compound 0.316 µM, first compound 1 µM
[17] = second compound 0.316 µM, first compound 3.16 µM
[18] = second compound 0.316 µM, first compound 10 µM
[19] = second compound 1 µM, first compound 0.0316 µM
[20] = second compound 1 µM, first compound 0.1 µM
[21] = second compound 1 µM, first compound 0.316 µM
[22] = second compound 1 µM, first compound 1 µM
[23] = second compound 1 µM, first compound 3.16 µM
[24] = second compound 1 µM, first compound 10 µM
[25] = second compound 3.16 µM, first compound 0.0316 µM
[26] = second compound 3.16 µM, first compound 0.1 µM
[27] = second compound 3.16 µM, first compound 0.316 µM
[28] = second compound 3.16 µM, first compound 1 µM
[29] = second compound 3.16 µM, first compound 3.16 µM
[30] = second compound 3.16 µM, first compound 10 µM
[31] = second compound 10 µM, first compound 0.0316 µM
[32] = second compound 10 µM, first compound 0.1 µM
[33] = second compound 10 µM, first compound 0.316 µM
[34] = second compound 10 µM, first compound 1 µM
[35] = second compound 10 µM, first compound 3.16 µM
[36] = second compound 10 µM, first compound 10 µM
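Note: spheroids exposed to compounds for seven days before readout.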
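Throughout, for viability, T/C: 100% = DMSO vehicle control viability.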

Work on `O=C(Nc1ccc(O)c(NS(=O)(=O)c2ccc(F)cc2)c1)c1ccc(-c2ccccc2)cc1` + COC1C(OC(N)=O)C(O)C(Oc2ccc3c(O)c(NC(=O)c4ccc(O)c(CC=C(C)C)c4)c(=O)oc3c2C)OC1(C)C yielded an IC50 (second compound 0.0316 µM) of over 10 µM, an IC50 (second compound 0.1 µM) of over 10 µM and an IC50 (second compound 0.316 µM) of over 10 µM. It also gave an IC50 (second compound 1 µM) of over 10 µM, an IC50 (second compound 3.16 µM) of over 10 µM and an IC50 (second compound 10 µM) of over 10 µM. The viability, T/C [1] was 93.1%, the viability, T/C [2] was 94.8% and the viability, T/C [3] was 94.1%. The viability, T/C [4] was 97.9%, the viability, T/C [5] was 106% and the viability, T/C [6] was 101%. The viability, T/C [7] was 98.8%, the viability, T/C [8] was 99.4% and the viability, T/C [9] was 102%. For the same molecule, the viability, T/C [10] was 107%, the viability, T/C [11] was 103% and the viability, T/C [12] was 97.3%. It also gave a viability, T/C [13] of 99.3%, a viability, T/C [14] of 99.9% and a viability, T/C [15] of 99.8%. For the same molecule, the viability, T/C [16] was 97%, the viability, T/C [17] was 104% and the viability, T/C [18] was 102%. The viability, T/C [19] was 102%, the viability, T/C [20] was 98.4% and the viability, T/C [21] was 93.5%. The viability, T/C [22] was 103%, the viability, T/C [23] was 104% and the viability, T/C [24] was 89.8%. It also gave a viability, T/C [25] of 107%, a viability, T/C [26] of 93.2% and a viability, T/C [27] of 92.3%. For the same molecule, the viability, T/C [28] was 96.5%, the viability, T/C [29] was 99.8% and the viability, T/C [30] was 98.3%. For the same molecule, the viability, T/C [31] was 97.2%, the viability, T/C [32] was 98.7% and the viability, T/C [33] was 102%. The viability, T/C [34] was 103%, the viability, T/C [35] was 101% and the viability, T/C [36] was 104%.

Work on `COc1cccc2c1C(=O)c1c(O)c3c(c(O)c1C2=O)CC(O)(C(=O)CO)CC3OC1CC(N)C(O)C(C)O1` (centres undefined) + Cc1cccc(N(C)C(=O)C2C(O)CCN2c2nc(C)cc(C(F)(F)F)c2C#N)c1 yielded an IC50 (second compound 0.0316 µM) of over 10 µM, an IC50 (second compound 0.1 µM) of over 10 µM and an IC50 (second compound 0.316 µM) of over 10 µM. The IC50 (second compound 1 µM) was 9.22 µM, the IC50 (second compound 3.16 µM) was 9.74 µM and the IC50 (second compound 10 µM) was over 10 µM. For the same molecule, the viability, T/C [1] was 99%, the viability, T/C [2] was 87.9% and the viability, T/C [3] was 79.6%. For the same molecule, the viability, T/C [4] was 70.5%, the viability, T/C [5] was 60.8% and the viability, T/C [6] was 53.2%. It also gave a viability, T/C [7] of 96.2%, a viability, T/C [8] of 92.5% and a viability, T/C [9] of 80.7%. The viability, T/C [10] was 70.2%, the viability, T/C [11] was 62.9% and the viability, T/C [12] was 52.8%. It also gave a viability, T/C [13] of 95.2%, a viability, T/C [14] of 94.4% and a viability, T/C [15] of 79.4%. For the same molecule, the viability, T/C [16] was 68.2%, the viability, T/C [17] was 63% and the viability, T/C [18] was 51.7%. It also gave a viability, T/C [19] of 100%, a viability, T/C [20] of 97.9% and a viability, T/C [21] of 79.6%. The viability, T/C [22] was 70.1%, the viability, T/C [23] was 62.8% and the viability, T/C [24] was 48.2%. For the same molecule, the viability, T/C [25] was 96.7%, the viability, T/C [26] was 86.1% and the viability, T/C [27] was 81.2%. For the same molecule, the viability, T/C [28] was 70%, the viability, T/C [29] was 56.3% and the viability, T/C [30] was 50.6%. It also gave a viability, T/C [31] of 96.2%, a viability, T/C [32] of 81.4% and a viability, T/C [33] of 80.1%. For the same molecule, the viability, T/C [34] was 68.2%, the viability, T/C [35] was 63.9% and the viability, T/C [36] was 48.8%.
